Experiment [1] relates to Enterococcus faecalis (ATCC 29212) (EFAECL). Description: Agar Well Diffusion Assay (Kirby-Bauer disks), zone of inhibition. It counts as cell-based. As to conditions: control antibiotic K-B disk. How it is done:
Isolates were subcultured the day before the Agar Well Diffusion Assay was performed. On the day of the assay, a bacterial suspension (0.08-0.12 MacFarland units) of each bacteria isolate was made in Trypticase Soy Broth (TSB), and these suspensions were used to plate a lawn of bacterial organisms on Mueller-Hinton agar or Mueller-Hinton sheep's blood agar. […] The next day, the width of the zone of growth inhibition surrounding each K-B disk was recorded (in mm). The larger the number, the greater the zone of inhibition, and the greater the inhibition of growth of the target organisms.
Therefore, all dilutions were made into DMSO and a K-B disk containing 25 uL DMSO was included in all experiments as a vehicle control.
When assessing antibiotic effects in a K-B type test, the minimum zone of inhibition for considering a positive test varies depending on the antibiotic tested with anything more than 0 mm considered positive in some cases or as much as 10 mm or more needed for others.

In experiment [2] the test system is cells. As to conditions: Chen, Planta Med. 60 (1994), cited from earlier work; for effect on cell proliferation: compounds obtained through extraction; for healing effects: Ecuadorian sap.
Experiment [3] concerns MRSA strains (Mupirocin-resistant and Mupirocin-susceptible). Description: In vitro MIC/MBC assay (2-fold microdilution), S. aureus strain panel. It counts as cell-based, Staphylococcus aureus. As to conditions: for MIC: Staphylococcus aureus. How it is done:
(§1) AB-101 was tested against an extensive variety of bacterial strains, including Mupirocin-resistant MRSA, Mupirocin-resistant MSSA, Mupirocin-susceptible MSSA, Mupirocin-susceptible MRSA, and other skin-related pathogens.
(§2) Measures included the minimum inhibitory concentration (MIC) which is the lowest concentration of AB-101 that prevents visible growth of the bacterium or pathogen, and minimum bactericidal concentration (MBC) which is the lowest concentration of an antibacterial agent required to kill a bacterium.
(§3) AB-101 Lots 01, 02 and a purified extract of taspine for MIC are compared. […] Taspine may have additional synergistic benefits to be included in the whole extract in the final product for the effective treatment of a bacterial colonization or primary or secondary bacterial infection of an underlying skin disorder.
(§4) AB-101 Lots 01, 02 and a purified extract of taspine for MBC are compared. […] Taspine may have additional synergistic benefits to be included in the whole extract in the final product for the effective treatment of bacterial colonization or primary or secondary bacterial infection of an underlying skin disorder.
(§5) Tables 26 and 27 show an assay whose setup is same as what was used for screening S. aureus and P. aeruginosa (i.e. 2-fold microdilution). The 20 strains of S. pyogenes assayed were selected from the two rounds of antibiotic screening to identify Erythromycin and Tetracycline resistant strains. […] For this feasibility study, AB-101 Lot 1 and Lot 2 was used. P. aeruginosa ATCC 27853 was tested as a positive control for AB-101 activity.
A general note: In broth dilution the organism is exposed to a series of concentrations in liquid medium.

Experiment [4] concerns MSSA strains (Mupirocin-resistant and Mupirocin-susceptible; QC ATCC 29213). The experiment is described as above. Format: cell-based, Staphylococcus aureus. How it is done: as §1, §2, §3, §4, §5

Usually MIC stands for the smallest concentration in the dilution series that meets the test's criterion for growth inhibition.

For the molecule `CC1(C)S[C@@H]2[C@H](NC(=O)[C@H](N)c3ccccc3)C(=O)N2[C@H]1C(=O)O` [AMP, Ampicillin], the “Zone of Inhibition” value in experiment [1] is on record as “AMP 8 MM”.
In the case of `Oc1cc(O)c2c(c1)O[C@H](c1ccc(O)c(O)c1)[C@@H](O)C2` [Catechin, catechin], the “effect on cell proliferation” value in experiment [2] is listed as “little effect”.
On to `COc1cccc(OC)c1C(=O)N[C@@H]1C(=O)N2[C@@H]1SC(C)(C)[C@@H]2C(=O)O` [Methicillin], for which the MIC in experiment [3] (strain 1674607, MupirocinR) is more than 64 µg/mL; in experiment [3] (strain 1674611, MupirocinR), 64 µg/mL; in experiment [3] (strain CDC 218, MupirocinR), more than 64 µg/mL; in experiment [3] (strain CDC 224, MupirocinR), more than 64 µg/mL; in experiment [3] (strain CDC 227, MupirocinS) it was 64 µg/mL; in experiment [3] (strain CDC 228, MupirocinR), 64 µg/mL. For the same molecule, the minimum inhibitory concentration (MIC) in experiment [3] (strain CDC 480, MupirocinS) was 32 to 64 µg/mL; in experiment [3] (strain CDC 481, MupirocinS) it was 16 to 32 µg/mL; in experiment [3] (strain CDC 482, MupirocinS), 8 to 32 µg/mL; in experiment [3] (strain CDC 483, MupirocinS), 64 µg/mL; in experiment [4] (Staphylococcus aureus, strain 1674606, MupirocinR, MSSA), 2 to 8 µg/mL; in experiment [4] (Staphylococcus aureus, strain 1674606; MupirocinR, MSSA), 2 to 8 µg/mL. Further, the MIC in experiment [4] (Staphylococcus aureus, strain 1674608, MupirocinR, MSSA) lay within 2 to 4 µg/mL; in experiment [4] (Staphylococcus aureus, strain 1674608; MupirocinR, MSSA), 2 to 4 µg/mL; in experiment [4] (Staphylococcus aureus, strain ATCC 29213, QC control) it was 1 to 2 µg/mL; in experiment [4] (Staphylococcus aureus, strain ATCC 29213; QC control), 1 to 2 µg/mL; in experiment [4] (Staphylococcus aureus, strain CDC 461, MupirocinS, MSSA), 4 to 8 µg/mL; in experiment [4] (Staphylococcus aureus, strain CDC 461; MupirocinS, MSSA), 4 to 8 µg/mL. Besides, the MIC in experiment [4] (Staphylococcus aureus, strain CDC 462, MupirocinS, MSSA) is 8 µg/mL; in experiment [4] (Staphylococcus aureus, strain CDC 462; MupirocinS, MSSA) it was 8 µg/mL; in experiment [4] (Staphylococcus aureus, strain CDC 463, MupirocinS, MSSA), 8 to 16 µg/mL; in experiment [4] (Staphylococcus aureus, strain CDC 463; MupirocinS, MSSA), 8 to 16 µg/mL; in experiment [4] (Staphylococcus aureus, strain CDC 464, MupirocinS, MSSA), 2 µg/mL; in experiment [4] (Staphylococcus aureus, strain CDC 464; MupirocinS, MSSA), 2 µg/mL. Further, the MIC in experiment [4] (Staphylococcus aureus, strain CDC 484, MupirocinS, MSSA) is 2 µg/mL; in experiment [4] (Staphylococcus aureus, strain CDC 484; MupirocinS, MSSA), 2 µg/mL; in experiment [4] (Staphylococcus aureus, strain CDC 485, MupirocinS, MSSA), 2 to 4 µg/mL; in experiment [4] (Staphylococcus aureus, strain CDC 485; MupirocinS, MSSA), 2 to 4 µg/mL.
`COc1ccc([C@H]2Oc3c(OC)cc(CCCO)cc3[C@@H]2CO)cc1OC` [dimethylcedrusin]: in experiment [2], the healing effects result is “little healing effects”.
Regarding `Oc1cc(O)c2c(c1)O[C@H](c1cc(O)c(O)c(O)c1)[C@@H](O)C2` [gallocatechin], the “effect on cell proliferation” value in experiment [2] is reported as “slightly stimulating”.
As to `COc1ccc2c(=O)oc3c(OC)cc(CCN(C)C)c4c(=O)oc1c2c34` [taspine], the “activity by MBC” value in experiment [3] and in experiment [4] (MSSA) was “does not have activity” throughout. Further, the “activity by MIC” value in experiment [3] (highest taspine concentration tested 10 μg/mL (50% relative to AB-101)) and in experiment [4] (MSSA; highest taspine concentration tested 10 μg/mL (50% relative to AB-101)) was “does not have activity” in each case. In addition, the healing effects result in experiment [2] is “little healing effects”.
Gentamicin [GM]: in experiment [1], the “Zone of Inhibition” value is reported as “GM 5 MM”.
Regarding epicatechin, the “effect on cell proliferation” value in experiment [2] is listed as “little effect”.
Consider epigallocatechin [epigalocatechin], for which the “effect on cell proliferation” value in experiment [2] is given as “slightly stimulating”.

The values are drawn from patent publication US12440529B2, “Topical Croton lechleri compositions and their use in the treatment of a bacterial colonization or primary or secondary bacterial infection of an underlying skin disorder” (ALPHYN BIOLOGICS, INC., priority 2020, dated 2025).
